In patent publication US20260007758A1, “SO[…]-2 RECEPTOR (SST2R) NON-PEPTIDE DRUG CONJUGATES AND USES THEREOF” (Crinetics Pharmaceuticals, Inc., priority 2024, published 2026):

Key:
Type in all cases: cell-based
SST2 = target: T1, SST2 (Homo sapiens, UniProt P30874); assay: PathHunter CHO-K1 SST2 Internalization Assay; conditions: PathHunter CHO-K1 SST2 cells; 90 min at 37 C; luminescence; read-out: Internalization EC50
T1 construct: host or cells: PathHunter CHO-K1 SST2 cells
Method: NDCs of the present invention were assessed in vitro using the human PathHunter CHO-K1 SST2 β-arrestin2 and PathHunter CHO-K1 SST2 Internalization Assays from DiscoverX. The CHO-K cells were seeded in 20 μLs of cell culture medium in a white-walled 384 well tissue culture-compatible plate at a density of 2500 cells/well. After a 48-hour incubation, cells were treated with 5 μLs of a 1:3 serially diluted SST2 NDC prepared at 5× concentration with a final top compound concentration of 10 uM for 90 min at 37 C and in 5% CO2. 11 dilutions were tested as well as one treatment that was compound free. After incubation, the media containing treatments were discarded and 20 μL of a working solution of Beta-Glo from Promega Beta-Go Assay System was added to each well. The plate was then incubated for 60 min at room temperature in the dark. Luminescence was measured using a Tecan plate reader. IC50 curves were generated using the nonlinear regression analysis (four-parameters) with GraphPad Prism 9. Results were the average of duplicates and are corrected for background.

[1] = target: T2, human somatostatin receptor subtype 2 (Homo sapiens, UniProt P30874); assay: Functional assay for SSTR2 agonists (HTRF cAMP); conditions: CHO-K1 cells stably expressing human SST2; NKH477-stimulated cAMP; 20 min at 37 C; read-out: hSST2 cAMP Avg EC50
T2 construct: expressed in transfected cells
Excerpt: General overview: All five SSTR subtypes are Gi coupled G-protein coupled receptors (GPCRs) that lead to decreases in intracellular cyclic AMP (cAMP) when activated by an agonist. Therefore, measurement of intracellular cAMP levels can be used to assess whether compounds of the invention are agonists of SSTR subtypes (John Kelly, Troy Stevens, W. Joseph Thompson, and Roland Seifert, Current Protocols in Pharmacology. 2005, 2.2.1-2.2). One example of an intracellular cAMP assay is described below.
Four days prior to the assay, 2,000 Chinese hamster ovary cells (CHO-K1, ATCC #CCL-61) stably expressing the human somatostatin receptor subtype 2 are plated in each well of a 96-well tissue culture-treated plate in Ham's F12 growth media (ThermoFisher #10-080-CM) supplemented with 10% donor bovine serum (Gemini Bio-Products #100-506), 100 U/mL penicillin; 100 ug/mL streptomycin, 2 mM L-glutamine (Gemini Bio-Products #400-110) and 0.2 mg/mL hygromycin B (GoldBio #31282-04-9). The cells are cultured at 37° C., 5% CO2 and 95% humidity. cAMP is measured with HTRF dynamic cAMP assay (Cisbio. #62AM5PEJ) per manufacturer's instructions. […] The cells are incubated for 20 minutes at 37° C. (the final concentration of the compounds of the invention are typically 0-10,000 nM). The cells are treated with 50 μL of lysis buffer (HRTF cAMP kit, Cisbio) and incubated at room temperature for 30 minutes with rotary shaking at 600 rpm, and then diluted with 150 μL of stimulation buffer and shaken for an additional five minutes at 300 rpm. The lysate is transferred to 384-well plates and incubated for 1-24 hours at room temperature, and cAMP accumulation is detected by d2-labeled cAMP and Anti-cAMP-Cryptate. The time-resolved fluorescent signal is read using a m1000 Pro (Tecan) or CLARIOStar (BMG Labtech) microplate reader, where the samples are excited with light at 340 nm and emission light is measured at 620 nm and 665 nm. The data is expressed as a calculation of the fluorescence ratio (665 nm/620 nm). The intracellular cAMP concentrations are calculated by regression to a standard curve and are plotted vs, the concentration of the compounds of the invention. The EC50 of the compounds are calculated using standard methods. All data manipulations are in GraphPad Prism v9 (GraphPad, San Diego, CA).

[2] = system: NCI-H524 human small cell lung cancer cells; assay: H524 assay: inhibition of cell proliferation (CellTiter Glo); conditions: 2 h treatment, washout, additional 70 h incubation
Method: NDCs of the present invention were assessed in an in vitro assay evaluating the inhibition of cell proliferation. NCI-H524 (ATCC) human small cell lung cancer cells were plated in 96-well V-bottom plates (Costar) at a concentration of 5,000 cells/well. 24 h later, the cells were treated for 2 h with a NDC. NDC starting dose was 1 uM and two-fold serial dilutions were done for a total of 11 points. After 2 h of treatment, cells were spun down, and the drug-containing media was removed, and fresh complete media was added and used to resuspend the cells, which were spun again. After removal of the media, the cells were resuspended in complete medium and incubated for an additional 70 h. Cell proliferation was assessed using the CellTiter Glo Assay according to the standard protocol (Promega). Luminescence was measured using a TECAN plate reader. Percent proliferation inhibition was calculated using the following formula: % inhibition=(Luminescence Control−Luminescence Treatment)/Luminescence Control*100. IC50 curves were generated using the nonlinear regression analysis (four-parameter) with GraphPad Prism 9.

T1 sequence (P30874 whole entry): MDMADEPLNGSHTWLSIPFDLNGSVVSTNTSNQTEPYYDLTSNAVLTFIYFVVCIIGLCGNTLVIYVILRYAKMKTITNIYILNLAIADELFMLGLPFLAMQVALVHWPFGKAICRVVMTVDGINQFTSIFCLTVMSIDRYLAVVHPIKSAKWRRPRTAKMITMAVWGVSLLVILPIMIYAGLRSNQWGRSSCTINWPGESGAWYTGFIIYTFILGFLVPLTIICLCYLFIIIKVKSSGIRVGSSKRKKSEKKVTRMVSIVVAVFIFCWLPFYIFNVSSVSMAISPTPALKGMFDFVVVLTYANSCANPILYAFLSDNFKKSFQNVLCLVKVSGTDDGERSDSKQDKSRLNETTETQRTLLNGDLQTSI
T2 sequence (P30874 whole entry): as above

SMILES	EC50 (SST2) [nM]	EC50 [1] [nM]	EC50 [2] [nM]
CC[C@H](C)[C@@H]([C@@H](CC(=O)N1CCC[C@H]1[C@H](OC)[C@@H](C)C(=O)N[C@H](C)[C@@H](O)c1ccccc1)OC)N(C)C(=O)[C@@H](NC(=O)[C@H](C(C)C)N(C)C(=O)OCc1ccc(NC(=O)[C@H](C)NC(=O)[C@@H](NC(=O)CCOCCC(=O)NCCNc2ncc(-c3cc(C)cc(F)c3)c(N3CCC(N)CC3)c2-c2nc3ccc(Cl)cc3[nH]2)C(C)C)c(O)c1)C(C)C [Compound 17]	3.8	0.44	5.4
CC[C@H](C)[C@@H]([C@@H](CC(=O)N1CCC[C@H]1[C@H](OC)[C@@H](C)C(=O)N[C@H](C)[C@@H](O)c1ccccc1)OC)N(C)C(=O)[C@@H](NC(=O)[C@H](C(C)C)N(C)C(=O)OCc1ccc(NC(=O)[C@H](CCCNC(N)=O)NC(=O)[C@@H](NC(=O)CCOCCC(=O)NCCNc2ncc(-c3cc(C)cc(F)c3)c(N3CCC(N)CC3)c2-c2nc3ccc(Cl)cc3[nH]2)C(C)C)c(OCC(=O)O)c1)C(C)C [Compound 18]	6.4	0.097	7.8
CC[C@H](C)[C@@H]([C@@H](CC(=O)N1CCC[C@H]1[C@H](OC)[C@@H](C)C(=O)N[C@H](C)[C@@H](O)c1ccccc1)OC)N(C)C(=O)[C@@H](NC(=O)[C@H](C(C)C)N(C)C(=O)OCc1ccc(NC(=O)[C@H](CCCNC(N)=O)NC(=O)[C@@H](NC(=O)CCOCCOCCOCCOCCC(=O)NCCNc2ncc(-c3cc(C)cc(F)c3)c(N3CCC(N)CC3)c2-c2nc3ccc(Cl)cc3[nH]2)C(C)C)c(OCC(=O)O)c1)C(C)C [Compound 19]	8.1	0.07	28
CC[C@H](C)[C@@H]([C@@H](CC(=O)N1CCC[C@H]1[C@H](OC)[C@@H](C)C(=O)N[C@H](C)[C@@H](O)c1ccccc1)OC)N(C)C(=O)[C@@H](NC(=O)[C@H](C(C)C)N(C)C(=O)OCc1ccc(NC(=O)[C@H](CCCNC(N)=O)NC(=O)[C@@H](NC(=O)CN(C)C(=O)CCOCCC(=O)NCCNc2ncc(-c3cc(C)cc(F)c3)c(N3CCC(N)CC3)c2-c2nc3ccc(Cl)cc3[nH]2)C(C)C)c(OCC(N)=O)c1)C(C)C [Compound 20]	7	0.093	29
CC[C@H](C)[C@@H]([C@@H](CC(=O)N1CCC[C@H]1[C@H](OC)[C@@H](C)C(=O)N[C@H](C)[C@@H](O)c1ccccc1)OC)N(C)C(=O)[C@@H](NC(=O)[C@H](C(C)C)N(C)C(=O)OCc1ccc(NC(=O)[C@H](CCCNC(N)=O)NC(=O)[C@@H](NC(=O)CCOCCC(=O)N(C)CC(=O)NCCNc2ncc(-c3cc(C)cc(F)c3)c(N3CCC(N)CC3)c2-c2nc3ccc(Cl)cc3[nH]2)C(C)C)c(OCC(N)=O)c1)C(C)C [Compound 21]	7.6	0.096	13
CC[C@H](C)[C@@H]([C@@H](CC(=O)N1CCC[C@H]1[C@H](OC)[C@@H](C)C(=O)N[C@H](C)[C@@H](O)c1ccccc1)OC)N(C)C(=O)[C@@H](NC(=O)[C@H](C(C)C)N(C)C(=O)OCc1ccc(NC(=O)[C@H](CCCNC(N)=O)NC(=O)[C@@H](NC(=O)C[C@@H](N)C(=O)NCCOCCC(=O)NCCNc2ncc(-c3cc(C)cc(F)c3)c(N3CCC(N)CC3)c2-c2nc3ccc(Cl)cc3[nH]2)C(C)C)c(OCC(=O)O)c1)C(C)C [Compound 22]	17	0.17	22
CC[C@H](C)[C@@H]([C@@H](CC(=O)N1CCC[C@H]1[C@H](OC)[C@@H](C)C(=O)N[C@H](C)[C@@H](O)c1ccccc1)OC)N(C)C(=O)[C@@H](NC(=O)[C@H](C(C)C)N(C)C(=O)OCc1ccc(NC(=O)[C@H](CCCNC(N)=O)NC(=O)[C@@H](NC(=O)C[C@@H](N)C(=O)NCCOCCOCCOCCOCCC(=O)NCCNc2ncc(-c3cc(C)cc(F)c3)c(N3CCC(N)CC3)c2-c2nc3ccc(Cl)cc3[nH]2)C(C)C)c(OCC(=O)O)c1)C(C)C [Compound 23]	20	0.29	32
CC[C@H](C)[C@@H]([C@@H](CC(=O)N1CCC[C@H]1[C@H](OC)[C@@H](C)C(=O)N[C@H](C)[C@@H](O)c1ccccc1)OC)N(C)C(=O)[C@@H](NC(=O)[C@H](C(C)C)N(C)C(=O)OCc1ccc(NC(=O)[C@H](CCCNC(N)=O)NC(=O)[C@@H](NC(=O)CCOCCOCCOCCOCCC(=O)N(C)CC(=O)NCCNc2ncc(-c3cc(C)cc(F)c3)c(N3CCC(N)CC3)c2-c2nc3ccc(Cl)cc3[nH]2)C(C)C)c(OCC(=O)O)c1)C(C)C [Compound 24]	20	0.2	100
CC[C@H](C)[C@@H]([C@@H](CC(=O)N1CCC[C@H]1[C@H](OC)[C@@H](C)C(=O)N[C@H](C)[C@@H](O)c1ccccc1)OC)N(C)C(=O)[C@@H](NC(=O)[C@H](C(C)C)N(C)C(=O)OCc1ccc(NC(=O)[C@H](CCCNC(N)=O)NC(=O)[C@@H](NC(=O)[C@@H](CCC(=O)O)NC(=O)CCOCCC(=O)NCCNc2ncc(-c3cc(C)cc(F)c3)c(N3CCC(N)CC3)c2-c2nc3ccc(Cl)cc3[nH]2)C(C)C)cc1C(=O)NCCN)C(C)C [Compound 25]	6.5	0.29	41
CC[C@H](C)[C@@H]([C@@H](CC(=O)N1CCC[C@H]1[C@H](OC)[C@@H](C)C(=O)N[C@H](C)[C@@H](O)c1ccccc1)OC)N(C)C(=O)[C@@H](NC(=O)[C@H](C(C)C)N(C)C(=O)OCc1ccc(NC(=O)[C@H](CCCNC(N)=O)NC(=O)[C@@H](NC(=O)[C@H](CCC(N)=O)NC(=O)CCOCCOCCOCCOCCC(=O)NCCNc2ncc(-c3cc(C)cc(F)c3)c(N3CCC(N)CC3)c2-c2nc3ccc(Cl)cc3[nH]2)C(C)C)c(OCCN)c1)C(C)C [Compound 26]	12	0.3	17
CC[C@H](C)[C@@H]([C@@H](CC(=O)N1CCC[C@H]1[C@H](OC)[C@@H](C)C(=O)N[C@H](C)[C@@H](O)c1ccccc1)OC)N(C)C(=O)[C@@H](NC(=O)[C@H](C(C)C)N(C)C(=O)OCc1ccc(NC(=O)[C@H](C)NC(=O)[C@@H](NC(=O)[C@H](CS(=O)(=O)O)NC(=O)CCOCCC(=O)NCCNc2ncc(-c3cc(C)cc(F)c3)c(N3CCC(N)CC3)c2-c2nc3ccc(Cl)cc3[nH]2)C(C)C)cc1C(=O)NCCN)C(C)C [Compound 27]	7.2	0.12	190
CC[C@H](C)[C@@H]([C@@H](CC(=O)N1CCC[C@H]1[C@H](OC)[C@@H](C)C(=O)N[C@H](C)[C@@H](O)c1ccccc1)OC)N(C)C(=O)[C@@H](NC(=O)[C@H](C(C)C)N(C)C(=O)OCc1ccc(NC(=O)[C@H](CCCNC(N)=O)NC(=O)[C@@H](NC(=O)[C@@H](CS(=O)(=O)O)NC(=O)CCOCCC(=O)NCCNc2ncc(-c3cc(C)cc(F)c3)c(N3CCC(N)CC3)c2-c2nc3ccc(Cl)cc3[nH]2)C(C)C)cc1C(=O)NCCN)C(C)C [Compound 28]	11	0.074	120
